According to patent publication US11578055B2, “Triazacyclododecansulfonamide (“TCD”)-based protein secretion inhibitors” (KEZAR LIFE SCIENCES, priority 2018, dated 2023):
Counter-ions that a name gives are not always drawn.

Columns and labels:
[1] = test system: PD1 signal sequence plus 10 amino acids fused to Gaussia Luciferase (PD1-ss+10aa/Gaussia Luciferase); assay: Dox Induced PD1-ss-Gluc Assay; format: cell-based; details: 24 hr, 293FRT/TO; read-out: 24 hr Dox Inducible PD1ssGluc 293FRT/TO: Mean IC50
Summary of the method: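 Stable Flp-In 293 T-REx line expressing the fusion under tetracycline-inducible control, plated the day before assay. Compound dilutions added with doxycycline and incubated at 37 °C, 5% CO2; unspecified stereocentres mean data refer to stereoisomer mixtures.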

[2] = test system: full length PD1 (amino acids 1-288) fused to Firefly Luciferase; assay: Dox Induced PD1-FL-Gluc Assay; format: cell-based; details: 24 hr, 293FRT/TO; read-out: 24 hr Dox Inducible PD1FLFluc 293FRT/TO: Mean IC50
Source text: FIp-In 293 T-REx™ cells were transfected with pcDNA™5/FRT/TO plasmid inserted with cDNA encoding Firefly Luciferase fused to the 3′ end of cDNA encoding full length PD1 (amino acids 1-288). Transfected cells were selected for resistance to the selectable markers Hygromycin and Blasticidin to create a stable cell line that contained the PD1-FL/Firefly Luciferase cDNA insert whose expression was regulated under the T-REx™ system. The day before assay, cells were trypsinized and plated in 384-well tissue culture plates. The next day, compound dilutions in DMSO/media containing doxycycline were added to the wells and incubated at 37° C., 5% CO2.
For chemical structures that include one or more stereoisomers, but are illustrated without indicating stereochemistry, the assay data refers to a mixture of stereoisomers.

[3] = test system: full length TNFα (amino acids 1-233) fused to Gaussia Luciferase; assay: Dox Induced TNFα-FL-Gluc Assay; format: cell-based; details: 24 hr, 293FRT/TO; read-out: 24 hr Dox Inducible TNFaFLGluc 293FRT/TO: Mean IC50
Summary of the method: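 Stable Flp-In 293 T-REx line expressing doxycycline-inducible full-length TNFα fused to Gaussia luciferase; cells plated the day before, then treated with compound dilutions in doxycycline-containing medium at 37° C, 5% CO2. Unspecified stereocentres mean stereoisomer mixtures were tested.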

[4] = test system: full length IL-2 (amino acids 1-153) fused to Gaussia Luciferase; assay: Dox Induced IL2-FL-Gluc Assay; format: cell-based; details: 24 hr, 293FRT/TO; read-out: 24 hr Dox Inducible IL2FLGluc 293FRT/TO: Mean IC50
Summary of the method: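 Flp-In 293 T-REx stable line expressing full-length IL-2 (aa 1-153) with C-terminal Gaussia luciferase fusion under doxycycline-inducible control. Cells plated the day before; compound dilutions added in DMSO/media containing doxycycline, incubated at 37° C, 5% CO2.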

[5] = test system: multiple myeloma cell line NCl-H929; assay: H929 Cell Viability Assay; format: cell-based, human; details: Homo sapiens, NCI-H929, 48 h, H929, read-out: 48 hr H929 Viability Celltiter-Glo: Mean EC50
Summary of the method: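 NCI-H929 myeloma cells in RPMI 1640 with 10% FBS were treated with compound dilutions for 48 h at 37 °C, and viability was then read by CellTiter-Glo luminescence. Compounds drawn without stereochemistry were tested as stereoisomer mixtures.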

[6] = test system: multiple myeloma cell line U266B1; assay: U266 Cell Viability Assay; format: cell-based, human; details: Homo sapiens, U-266; 48 hr, U266; read-out: 48 hr U266 Viability Celltiter-Glo: Mean EC50
Summary of the method: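 U266B1 myeloma cells in RPMI 1640 with 10% FBS were treated with compound dilutions for 48 h at 37° C, 5% CO2. Viability was read as CellTiter-Glo luminescence. Data for structures drawn without stereochemistry refer to stereoisomer mixtures.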

[7] = In Vitro Microsome Stability Assay (human); format: in vitro ADME; details: human, 30 min, NADPH
Summary of the method: (§1)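 Species liver microsomes in potassium phosphate buffer were preincubated at 37 °C for 3–5 min with test compound (added from 0.25 mM DMSO stock), then started with NADPH. Samples at 0 and 30 min were quenched with acetonitrile containing internal standard and analysed by LC-MS/MS; % remaining at 30 min used analyte/IS AUC ratios relative to t=0.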

[8] = In Vitro Microsome Stability Assay (mouse); format: in vitro ADME; details: mouse, 30 min, NADPH
Summary of the method: as §1

[9] = In Vitro Microsome Stability Assay (rat); format: in vitro ADME; details: rat, 30 min, NADPH
Summary of the method: as §1

[10] = In Vitro Microsome Stability Assay (monkey); format: in vitro ADME; details: monkey, 30 min, NADPH
Summary of the method: as §1

IC50 [1] [nM]	IC50 [2] [nM]	IC50 [3] [nM]	IC50 [4] [nM]	EC50 [5] [nM]	EC50 [6] [nM]	Liver Microsome Stability-% Left after 30 min w/ NADPH (%) Human [7] [%]	Liver Microsome Stability-% Left after 30 min w/ NADPH (%) Mouse [8] [%]	Liver Microsome Stability-% Left after 30 min w/ NADPH (%) Rat [9] [%]	Liver Microsome Stability-% Left after 30 min w/ NADPH (%) Monkey [10] [%]	SMILES
1030	1400	> 25000	1170	> 25000	> 25000	0.18	0.21	0.12	0.18	C=C1CN(S(=O)(=O)c2ccc(C)cc2)CCCN(Cc2ccccc2)CCCN(S(=O)(=O)c2ccc(C)cc2)C1 [A1]
93.9	311	3760	–	1220	> 25000	0.25	0.56	1.17	1.17	C=C1CN(S(=O)(=O)c2ccc(C)cc2)CCCN(CC2CCCCC2)CCCN(S(=O)(=O)c2ccc(N(C)C)cc2)C1 [A4]
365	866	> 25000	624	> 25000	> 25000	0.21	0.18	0.17	0.08	Cc1ccc(S(=O)(=O)N2CCCN(CC3CCCCC3)CCCN(S(=O)(=O)c3ccc(N(C)C)cc3)CC3(CC3)C2)cc1 [A11, 4-{[9-(cyclohexylmethyl)-13-(4-methylbenzenesulfonyl)-5,9,13-triazaspiro[2.11]tetradecan-5-yl]sulfonyl}-N,N-dimethylaniline hydrochloride]
640	1230	> 25000	1160	> 25000	> 25000	0.08	5.39	1.13	1.4	Cc1ccc(S(=O)(=O)N2CCCN(CC3CCCCC3)CCCN(S(=O)(=O)c3ccc(N(C)C)cc3)CCC2)cc1 [A14, 4-((5-(cyclohexylmethyl)-9-tosyl-1,5,9-triazacyclododecan-1-yl)sulfonyl)-N,N-dimethylaniline]
156	404	6380	370	6670	> 25000	0.16	0.12	0.4	0.11	CC1CCN(S(=O)(=O)N2CCCN(CC3CCCCC3)CCCN(S(=O)(=O)c3ccc(N(C)C)cc3)CC3(CC3)C2)CC1 [A22, 4-{[9-(cyclohexylmethyl)-13-[(4-methylpiperidin-1-yl)sulfonyl]-5,9,13-triazaspiro[2.11]tetradecan-5-yl]sulfonyl}-N,N-dimethylaniline]
241	591	> 25000	447	> 25000	> 25000	39.6	32.4	43.3	19.5	CN(C)c1ccc(S(=O)(=O)N2CCCN(CC3CCCCC3)CCCN(S(=O)(=O)N3CCC(c4ccccc4)CC3)CC3(CC3)C2)cc1 [A29, 4-{[9-(cyclohexylmethyl)-13-[(4-phenylpiperidin-1-yl)sulfonyl]-5,9,13-triazaspiro[2.11]tetradecan-5-yl]sulfonyl}-N,N-dimethylaniline]
83	244	> 11900	–	> 25000	> 25000	24.8	20.9	30	13.6	C=C1CN(S(=O)(=O)c2ccc(N(C)C)cc2)CCCN(CC2CCCCC2)CCCN(S(=O)(=O)N2CCC(c3ccccc3)CC2)C1 [A35, 4-{[9-(cyclohexylmethyl)-3-methylidene-5-[(4-phenylpiperidin-1-yl)sulfonyl]-1,5,9-triazacyclododecan-1-yl]sulfonyl}-N,N-dimethylaniline hydrochloride]
118	319	> 21800	301	> 15400	> 25000	6.69	1.85	0.94	1.54	C=C1CN(S(=O)(=O)c2ccc(N(C)C)cc2)CCCN(CC2CCCCC2)CCCN(S(=O)(=O)N2CCN(c3ccccc3)CC2)C1 [A36, 4-{[9-(cyclohexylmethyl)-3-methylidene-5-[(4-phenylpiperazin-1-yl)sulfonyl]-1,5,9-triazacyclododecan-1-yl]sulfonyl}-N,N-dimethylaniline]
46.9	161	1210	133	2970	> 25000	15.4	20.1	22.3	12	C=C1CN(S(=O)(=O)c2ccc(N(C)C)cc2)CCCN(CC2CCCCC2)CCCN(S(=O)(=O)N2CCC[C@@H](c3ccccc3)C2)C1 [A43, 4-{[9-(cyclohexylmethyl)-3-methylidene-5-{[(3S)-3-phenylpiperidin-1-y]sulfonyl}-1,5,9-triazacyclododecan-1-yl]sulfonyl}-N,N-dimethylaniline]
22.2	74.1	661	57	1010	6540	1.32	70.1	3.6	0.79	C=C1CN(S(=O)(=O)c2ccc(N(C)C)cc2)CCCN(CC2CCCCC2)CCCN(S(=O)(=O)N2CCc3ccccc3C2)C1 [A50, 4-{[9-(cyclohexylmethyl)-3-methylidene-5-(1,2,3,4-tetrahydroisoquinoline-2-sulfonyl)-1,5,9-triazacyclododecan-1-yl]sulfonyl}-N,N-dimethylaniline]
–	429	> 25000	395	5630	> 25000	41.3	34.1	39.9	29.2	C=C1CN(S(=O)(=O)c2c(F)cc(N(C)C)cc2F)CCCN(CC2CCCCC2)CCCN(S(=O)(=O)N2CCC(c3ccccc3)CC2)C1 [A86]
